The results in this text go back to patent publication US20210070748A1, “INHIBITORS OF BRUTONS TYROSINE KINASE” (Pharmacyclics LLC, priority 2015, published 2021).

In the assay the target is T1, BTK-WT (Homo sapiens, UniProt Q06187).
T1 construct: purified from insect cells as a full-length construct containing an N-terminal 6X-His tag; His6 (N); made in house; host or cells: insect cells (baculovirus Sf21 in Method B)
As to the kind of experiment: Btk in vitro inhibitory activity (one of Method A TR-FRET, Method B electrophoretic mobility shift, Method C radiometric filter binding). Particulars: D-compounds panel data; read-out: IC50 BTK-WT. Type of assay: biochemical. In general terms: A gel shift assay detects complexes by their altered migration in electrophoresis.

SMILES strings stand for the structures. A value given as a limit tells only on which side of the number the result lay.

T1 sequence (Q06187 whole entry): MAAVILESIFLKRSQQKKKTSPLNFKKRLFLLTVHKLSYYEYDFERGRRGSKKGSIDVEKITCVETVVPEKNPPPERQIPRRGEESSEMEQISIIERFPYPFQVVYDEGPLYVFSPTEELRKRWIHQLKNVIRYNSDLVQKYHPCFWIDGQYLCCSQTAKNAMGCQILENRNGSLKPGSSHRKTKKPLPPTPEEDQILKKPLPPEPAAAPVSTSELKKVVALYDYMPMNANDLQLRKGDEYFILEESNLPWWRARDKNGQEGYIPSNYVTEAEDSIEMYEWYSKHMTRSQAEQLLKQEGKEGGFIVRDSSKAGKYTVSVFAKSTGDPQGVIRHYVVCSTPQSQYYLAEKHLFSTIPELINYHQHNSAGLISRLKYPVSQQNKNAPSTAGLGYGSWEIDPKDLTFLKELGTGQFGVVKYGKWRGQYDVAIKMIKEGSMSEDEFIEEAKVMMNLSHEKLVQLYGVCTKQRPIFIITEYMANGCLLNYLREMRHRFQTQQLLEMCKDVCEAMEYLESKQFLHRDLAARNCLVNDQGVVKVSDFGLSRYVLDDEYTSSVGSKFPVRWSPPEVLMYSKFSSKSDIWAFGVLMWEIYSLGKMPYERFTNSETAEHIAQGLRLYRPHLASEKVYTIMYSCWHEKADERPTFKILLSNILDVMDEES

Regarding `C[C@@H]1[C@H](NC(=O)c2ccc(C3CC3)cc2)CCCN1c1cnc(C(N)=O)c(Nc2ccc(C3CCN(C)CC3)cc2)n1` [Example D-301, 5-[(2R,3R)-3-(4-cyclopropylbenzamido)-2-methylpiperidin-1-yl]-3-{[4-(1-methylpiperidin-4-yl)phenyl]amino}pyrazine-2-carboxamide], the IC50 was at most 10 nM.
The value for `C[C@@H]1[C@H](NC(=O)c2ccc(C3CC3)cc2)CCCN1c1cnc(C(N)=O)c(Nc2cnn(C)c2C(F)(F)F)n1` [Example D-276, 5-[(2R,3R)-3-(4-cyclopropylbenzamido)-2-methylpiperidin-1-yl]-3-{[1-methyl-5-(trifluoromethyl)-1H-pyrazol-4-yl]amino}pyrazine-2-carboxamide] was 1000 to 10000 nM; that for `C[C@@H]1[C@H](NC(=O)c2ccc(N(C)C)cc2)CCCN1c1cnc(C(N)=O)c(Nc2cnn(C)c2)n1` [Example D-24, 5-[(2R,3R)-3-[4-(dimethylamino)benzamido]-2-methylpiperidin-1-yl]-3-[(1-methyl-1H-pyrazol-4-yl)amino]pyrazine-2-carboxamide] was at most 10 nM; that for `C[C@@H]1[C@H](NC(=O)c2ccc3[nH]cnc3c2)CCCN1c1cnc(C(N)=O)c(Nc2cnn(C)c2)n1` [Example D-262, N-[(2R,3R)-1-{5-carbamoyl-6-[(1-methyl-1H-pyrazol-4-yl)amino]pyrazin-2-yl}-2-methylpiperidin-3-yl]-1H-1,3-benzodiazole-5-carboxamide] was at most 10 nM.
The value for `C[C@@H]1[C@H](NC(=O)c2ccc(C3CC3)c(O)c2)CCCN1c1cnc(C(N)=O)c(Nc2cnn(C)c2)n1` [Example D-245, 5-[(2R,3R)-3-(4-cyclopropyl-3-hydroxybenzamido)-2-methylpiperidin-1-yl]-3-[(1-methyl-1H-pyrazol-4-yl)amino]pyrazine-2-carboxamide] was at most 10 nM.
The value for `C[C@@H]1[C@H](NC(=O)c2ccc(C3CC3)cc2)CCCN1c1cnc(C(N)=O)c(Nc2cn[nH]c2)n1` [Example D-282, 5-[(2R,3R)-3-(4-cyclopropylbenzamido)-2-methylpiperidin-1-yl]-3-[(1H-pyrazol-4-yl)amino]pyrazine-2-carboxamide] was at most 10 nM; that for `COCCn1cc(Nc2nc(N3CCC[C@@H](NC(=O)c4ccc(C5CC5)cc4)[C@H]3C)cnc2C(N)=O)cn1` [Example D-270, 5-[(2R,3R)-3-(4-cyclopropylbenzamido)-2-methylpiperidin-1-yl]-3-{[1-(2-methoxyethyl)-1H-pyrazol-4-yl]amino}pyrazine-2-carboxamide] was at most 10 nM; that for `C[C@@H]1[C@H](NC(=O)c2cc3n(n2)CCC3)CCCN1c1cnc(C(N)=O)c(Nc2cnn(C)c2)n1` [Example D-263, 3-[(1-methyl-1H-pyrazol-4-yl)amino]-5-[(2R,3R)-2-methyl-3-{4H,5H,6H-pyrrolo[1,2-b]pyrazole-2-amido}piperidin-1-yl]pyrazine-2-carboxamide] was at most 10 nM.
In the case of `C[C@@H]1[C@H](NC(=O)c2ccc(C3CC3)cc2)CCCN1c1cnc(C(N)=O)c(Nc2cnn(C(F)F)c2)n1` [Example D-275, 5-[(2R,3R)-3-(4-cyclopropylbenzamido)-2-methylpiperidin-1-yl]-3-{[1-(difluoromethyl)-1H-pyrazol-4-yl]amino}pyrazine-2-carboxamide], the IC50 was at most 10 nM.
For the compound `C[C@@H]1[C@H](NC(=O)c2ccc(C3CC3)cc2)CCCN1c1cnc(C(N)=O)c(Nc2ccc3c(c2)CCOC3)n1` [Example D-303, 5-[(2R,3R)-3-(4-cyclopropylbenzamido)-2-methylpiperidin-1-yl]-3-[(3,4-dihydro-1H-2-benzopyran-6-yl)amino]pyrazine-2-carboxamide], the half-maximal inhibitory concentration (IC50) is 10 to 100 nM.
The value for `C[C@@H]1[C@H](NC(=O)c2ccc(C3CC3)cc2)CCCN1c1cnc(C(N)=O)c(Nc2cnn(-c3ccncc3)c2)n1` [Example D-284, 5-[(2R,3R)-3-(4-cyclopropylbenzamido)-2-methylpiperidin-1-yl]-3-{[1-(pyridin-4-yl)-1H-pyrazol-4-yl]amino}pyrazine-2-carboxamide] was at most 10 nM.
The value for `C[C@@H]1[C@H](NC(=O)c2ccc(C(C)(C)C)cc2)CCCN1c1cnc(C(N)=O)c(Nc2ccc(OC3CCN(C)CC3)cc2)n1` [Example D-291, 5-[(2R,3R)-3-(4-tert-butylbenzamido)-2-methylpiperidin-1-yl]-3-({4-[(1-methylpiperidin-4-yl)oxy]phenyl}amino)pyrazine-2-carboxamide] was at most 10 nM.
With `C[C@@H]1[C@H](NC(=O)c2ccc3c(cnn3C)c2)CCCN1c1cnc(C(N)=O)c(Nc2cnn(C)c2)n1` [Example D-254, N-[(2R,3R)-1-{5-carbamoyl-6-[(1-methyl-1H-pyrazol-4-yl)amino]pyrazin-2-yl}-2-methylpiperidin-3-yl]-1-methyl-1H-indazole-5-carboxamide], the half-maximal inhibitory concentration (IC50) was at most 10 nM.
The value for `C[C@@H]1[C@H](NC(=O)c2c[nH]c(C3CC3)n2)CCCN1c1cnc(C(N)=O)c(Nc2cnn(C)c2)n1` [Example D-264, 5-[(2R,3R)-3-(2-cyclopropyl-1H-imidazole-4-amido)-2-methylpiperidin-1-yl]-3-[(1-methyl-1H-pyrazol-4-yl)amino]pyrazine-2-carboxamide] was at most 10 nM; that for `C[C@@H]1[C@H](NC(=O)c2ccc(C3CC3)cc2)CCCN1c1cnc(C(N)=O)c(Nc2cnn(C3CCNCC3)c2)n1` [Example D-280, 5-[(2R,3R)-3-(4-cyclopropylbenzamido)-2-methylpiperidin-1-yl]-3-{[1-(piperidin-4-yl)-1H-pyrazol-4-yl]amino}pyrazine-2-carboxamide] was at most 10 nM.
Consider `C[C@@H]1[C@H](NC(=O)c2ccc(C3COC3)cc2)CCCN1c1cnc(C(N)=O)c(Nc2cnn(C)c2)n1` [Example D-23, 3-[(1-methyl-1H-pyrazol-4-yl)amino]-5-[(2R,3R)-2-methyl-3-[4-(oxetan-3-yl)benzamido]piperidin-1-yl]pyrazine-2-carboxamide], for which the IC50 was at most 10 nM.
Turning to `Cc1nc2cc(C(=O)N[C@@H]3CCCN(c4cnc(C(N)=O)c(Nc5cnn(C)c5)n4)[C@@H]3C)ccc2[nH]1` [Example D-261, N-[(2R,3R)-1-{5-carbamoyl-6-[(1-methyl-1H-pyrazol-4-yl)amino]pyrazin-2-yl}-2-methylpiperidin-3-yl]-2-methyl-1H-1,3-benzodiazole-5-carboxamide], the IC50 was at most 10 nM.
Then `C[C@@H]1[C@H](NC(=O)c2ccc3ncsc3c2)CCCN1c1cnc(C(N)=O)c(Nc2cnn(C)c2)n1` [Example D-243, N-[(2R,3R)-1-{5-carbamoyl-6-[(1-methyl-1H-pyrazol-4-yl)amino]pyrazin-2-yl}-2-methylpiperidin-3-yl]-1,3-benzothiazole-6-carboxamide], with at most 10 nM.
Regarding `C[C@@H]1[C@H](NC(=O)c2ccc(C(C)(C)O)cc2F)CCCN1c1cnc(C(N)=O)c(Nc2cnn(C)c2)n1` [Example D-302, 5-[(2R,3R)-3-[2-fluoro-4-(2-hydroxypropan-2-yl)benzamido]-2-methylpiperidin-1-yl]-3-[(1-methyl-1H-pyrazol-4-yl)amino]pyrazine-2-carboxamide], the IC50 was at most 10 nM.
Then `C[C@@H]1[C@H](NC(=O)c2ccc(C(C)(C)O)cc2)CCCN1c1nnc(C(N)=O)c(Nc2cnn(C)c2)n1` [Example D-298, 3-[(2R,3R)-3-[4-(2-hydroxypropan-2-yl)benzamido]-2-methylpiperidin-1-yl]-5-[(1-methyl-1H-pyrazol-4-yl)amino]-1,2,4-triazine-6-carboxamide], with at most 10 nM; and `C[C@@H]1[C@H](NC(=O)c2ccc(C(O)C(F)(F)F)cc2)CCCN1c1cnc(C(N)=O)c(Nc2cnn(C)c2)n1` (single isomer, unassigned) [Example D-250], with at most 10 nM; and `C[C@@H]1[C@H](NC(=O)c2ccc(C(C)(C)F)cc2)CCCN1c1cnc(C(N)=O)c(Nc2cnn(C)c2)n1` [Example D-251, 5-[(2R,3R)-3-[4-(2-fluoropropan-2-yl)benzamido]-2-methylpiperidin-1-yl]-3-[(1-methyl-1H-pyrazol-4-yl)amino]pyrazine-2-carboxamide], with at most 10 nM.
Then `C[C@@H]1[C@H](NC(=O)c2cc(C3CC3)n[nH]2)CCCN1c1cnc(C(N)=O)c(Nc2cnn(C)c2)n1` [Example D-252, 5-[(2R,3R)-3-(3-cyclopropyl-1H-pyrazole-5-amido)-2-methylpiperidin-1-yl]-3-[(1-methyl-1H-pyrazol-4-yl)amino]pyrazine-2-carboxamide], with at most 10 nM.
Consider `C[C@@H]1[C@H](NC(=O)c2ccc(C3CC3)cn2)CCCN1c1cnc(C(N)=O)c(Nc2ccc(OC3CCN(C)CC3)cc2)n1` [Example D-297, 5-[(2R,3R)-3-(5-cyclopropylpyridine-2-amido)-2-methylpiperidin-1-yl]-3-({4-[(1-methylpiperidin-4-yl)oxy]phenyl}amino)pyrazine-2-carboxamide], for which the IC50 was at most 10 nM.
Then `C[C@@H]1[C@H](NC(=O)c2ccc(C3CC3)cc2Cl)CCCN1c1cnc(C(N)=O)c(Nc2cnn(C)c2)n1` [Example D-20, 5-[(2R,3R)-3-(2-chloro-4-cyclopropylbenzamido)-2-methylpiperidin-1-yl]-3-[(1-methyl-1H-pyrazol-4-yl)amino]pyrazine-2-carboxamide], with at most 10 nM.
Then `C[C@@H]1[C@H](NC(=O)c2cc(C(C)(C)C)on2)CCCN1c1cnc(C(N)=O)c(Nc2cnn(C)c2)n1` [Example D-247, 5-[(2R,3R)-3-(5-tert-butyl-1,2-oxazole-3-amido)-2-methylpiperidin-1-yl]-3-[(1-methyl-1H-pyrazol-4-yl)amino]pyrazine-2-carboxamide], with at most 10 nM; and `C[C@@H]1[C@H](NC(=O)c2ccc(C(C)(O)CO)cc2)CCCN1c1cnc(C(N)=O)c(Nc2cnn(C)c2)n1` (single isomer, unassigned) [Example D-256], with at most 10 nM; and `C[C@@H]1[C@H](NC(=O)c2ccc(C3CC3)cc2)CCCN1c1cnc(C(N)=O)c(Nc2cnn(C3CC3)c2)n1` [Example D-279, 3-[(1-cyclopropyl-1H-pyrazol-4-yl)amino]-5-[(2R,3R)-3-(4-cyclopropylbenzamido)-2-methylpiperidin-1-yl]pyrazine-2-carboxamide], with at most 10 nM.

In general, IC50 refers to the point on the concentration scale where inhibition reaches its midpoint.
